# Experimental data reported in ChEMBL document CHEMBL1145498, “A systematic interaction map of validated kinase inhibitors with Ser/Thr kinases” (Proc Natl Acad Sci U S A, 2007).
# Biological target: T1, 3-phosphoinositide-dependent protein kinase 1 (Homo sapiens) (UniProt O15530)
# T1 sequence (whole entry): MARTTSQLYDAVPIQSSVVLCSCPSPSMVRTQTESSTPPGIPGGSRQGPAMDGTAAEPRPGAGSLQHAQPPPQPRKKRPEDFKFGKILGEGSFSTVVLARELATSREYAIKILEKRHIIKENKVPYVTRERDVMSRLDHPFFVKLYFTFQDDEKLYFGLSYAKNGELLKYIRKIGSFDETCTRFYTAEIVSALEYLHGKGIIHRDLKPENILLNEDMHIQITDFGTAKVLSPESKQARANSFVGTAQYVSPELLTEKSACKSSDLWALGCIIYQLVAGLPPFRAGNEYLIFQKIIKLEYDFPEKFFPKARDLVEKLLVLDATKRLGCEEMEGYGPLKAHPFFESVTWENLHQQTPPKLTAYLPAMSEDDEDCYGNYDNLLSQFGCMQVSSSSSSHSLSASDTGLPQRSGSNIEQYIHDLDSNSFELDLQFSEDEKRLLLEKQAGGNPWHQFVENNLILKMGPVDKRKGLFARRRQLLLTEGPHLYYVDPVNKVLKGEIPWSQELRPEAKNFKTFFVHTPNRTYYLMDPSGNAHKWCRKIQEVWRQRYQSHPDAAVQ
row,ΔTm,SMILES
1,-0.2 °C,Nc1nccc(-c2c(-c3ccc(F)cc3)ncn2C2CCNCC2)n1
2,0.1 °C,Oc1cccc(-c2nc(N3CCOCC3)c3oc4ncccc4c3n2)c1
3,-0.3 °C,N#C/C(=C\c1ccc(O)c(O)c1)C(=O)Nc1ccccc1

# Biological target: Serine/threonine-protein kinase RIO2 (Homo sapiens) (UniProt Q9BVS4)
row,ΔTm,SMILES
1,0.2 °C,Nc1nccc(-c2c(-c3ccc(F)cc3)ncn2C2CCNCC2)n1
2,-0.3 °C,Oc1cccc(-c2nc(N3CCOCC3)c3oc4ncccc4c3n2)c1
3,0.5 °C,N#C/C(=C\c1ccc(O)c(O)c1)C(=O)Nc1ccccc1

# Biological target: Ribosomal protein S6 kinase alpha-3 (Homo sapiens) (UniProt P51812)
row,ΔTm,SMILES
1,0.8 °C,Nc1nccc(-c2c(-c3ccc(F)cc3)ncn2C2CCNCC2)n1
2,0.1 °C,Oc1cccc(-c2nc(N3CCOCC3)c3oc4ncccc4c3n2)c1
3,0.8 °C,N#C/C(=C\c1ccc(O)c(O)c1)C(=O)Nc1ccccc1

# Biological target: TRAF2 and NCK-interacting protein kinase (Homo sapiens) (UniProt Q9UKE5)
# Sequence (Q9UKE5 whole entry, looked up): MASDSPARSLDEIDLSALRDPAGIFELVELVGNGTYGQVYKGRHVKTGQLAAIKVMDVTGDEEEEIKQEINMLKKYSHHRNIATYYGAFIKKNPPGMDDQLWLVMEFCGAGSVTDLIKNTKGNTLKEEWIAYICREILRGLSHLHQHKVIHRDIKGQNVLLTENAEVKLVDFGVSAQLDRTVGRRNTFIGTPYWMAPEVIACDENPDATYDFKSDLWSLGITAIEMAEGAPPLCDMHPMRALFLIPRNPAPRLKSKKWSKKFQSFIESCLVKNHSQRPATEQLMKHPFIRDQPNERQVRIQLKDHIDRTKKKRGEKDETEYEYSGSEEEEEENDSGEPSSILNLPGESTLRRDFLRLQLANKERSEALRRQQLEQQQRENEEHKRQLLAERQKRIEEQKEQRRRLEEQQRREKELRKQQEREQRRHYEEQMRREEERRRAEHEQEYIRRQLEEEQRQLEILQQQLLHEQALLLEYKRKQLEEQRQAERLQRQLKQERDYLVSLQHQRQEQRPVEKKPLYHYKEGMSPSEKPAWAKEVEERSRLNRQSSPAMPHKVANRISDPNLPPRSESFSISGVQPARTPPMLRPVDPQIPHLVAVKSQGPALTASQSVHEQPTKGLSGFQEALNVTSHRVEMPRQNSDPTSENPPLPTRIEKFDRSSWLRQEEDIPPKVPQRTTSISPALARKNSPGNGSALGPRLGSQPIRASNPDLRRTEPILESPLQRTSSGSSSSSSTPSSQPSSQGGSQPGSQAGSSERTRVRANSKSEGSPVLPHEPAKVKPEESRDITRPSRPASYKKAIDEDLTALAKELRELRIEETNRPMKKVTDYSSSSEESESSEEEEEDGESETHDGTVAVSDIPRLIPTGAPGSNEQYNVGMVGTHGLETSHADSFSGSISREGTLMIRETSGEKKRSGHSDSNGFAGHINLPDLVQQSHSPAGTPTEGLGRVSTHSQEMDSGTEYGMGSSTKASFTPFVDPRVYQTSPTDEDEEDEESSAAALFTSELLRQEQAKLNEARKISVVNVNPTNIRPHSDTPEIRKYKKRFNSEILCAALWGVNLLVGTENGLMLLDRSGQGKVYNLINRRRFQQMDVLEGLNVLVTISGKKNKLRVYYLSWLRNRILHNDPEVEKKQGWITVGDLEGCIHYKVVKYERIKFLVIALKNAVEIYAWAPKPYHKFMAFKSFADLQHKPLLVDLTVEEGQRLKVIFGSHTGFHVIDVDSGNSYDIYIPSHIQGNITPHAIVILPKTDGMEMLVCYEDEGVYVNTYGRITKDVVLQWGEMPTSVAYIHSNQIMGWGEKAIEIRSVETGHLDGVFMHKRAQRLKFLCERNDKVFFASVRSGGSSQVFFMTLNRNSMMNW
row,ΔTm,SMILES
1,-0.9 °C,Nc1nccc(-c2c(-c3ccc(F)cc3)ncn2C2CCNCC2)n1
2,0.3 °C,Oc1cccc(-c2nc(N3CCOCC3)c3oc4ncccc4c3n2)c1
3,1 °C,N#C/C(=C\c1ccc(O)c(O)c1)C(=O)Nc1ccccc1

# Biological target: Serine/threonine-protein kinase Chk2 (Homo sapiens, UniProt O96017)
row,ΔTm,SMILES
1,0.1 °C,Nc1nccc(-c2c(-c3ccc(F)cc3)ncn2C2CCNCC2)n1
2,1.4 °C,Oc1cccc(-c2nc(N3CCOCC3)c3oc4ncccc4c3n2)c1
3,0.1 °C,N#C/C(=C\c1ccc(O)c(O)c1)C(=O)Nc1ccccc1

# Biological target: Tyrosine-protein kinase JAK1 (Homo sapiens) (UniProt P23458)
# Sequence (P23458 whole entry): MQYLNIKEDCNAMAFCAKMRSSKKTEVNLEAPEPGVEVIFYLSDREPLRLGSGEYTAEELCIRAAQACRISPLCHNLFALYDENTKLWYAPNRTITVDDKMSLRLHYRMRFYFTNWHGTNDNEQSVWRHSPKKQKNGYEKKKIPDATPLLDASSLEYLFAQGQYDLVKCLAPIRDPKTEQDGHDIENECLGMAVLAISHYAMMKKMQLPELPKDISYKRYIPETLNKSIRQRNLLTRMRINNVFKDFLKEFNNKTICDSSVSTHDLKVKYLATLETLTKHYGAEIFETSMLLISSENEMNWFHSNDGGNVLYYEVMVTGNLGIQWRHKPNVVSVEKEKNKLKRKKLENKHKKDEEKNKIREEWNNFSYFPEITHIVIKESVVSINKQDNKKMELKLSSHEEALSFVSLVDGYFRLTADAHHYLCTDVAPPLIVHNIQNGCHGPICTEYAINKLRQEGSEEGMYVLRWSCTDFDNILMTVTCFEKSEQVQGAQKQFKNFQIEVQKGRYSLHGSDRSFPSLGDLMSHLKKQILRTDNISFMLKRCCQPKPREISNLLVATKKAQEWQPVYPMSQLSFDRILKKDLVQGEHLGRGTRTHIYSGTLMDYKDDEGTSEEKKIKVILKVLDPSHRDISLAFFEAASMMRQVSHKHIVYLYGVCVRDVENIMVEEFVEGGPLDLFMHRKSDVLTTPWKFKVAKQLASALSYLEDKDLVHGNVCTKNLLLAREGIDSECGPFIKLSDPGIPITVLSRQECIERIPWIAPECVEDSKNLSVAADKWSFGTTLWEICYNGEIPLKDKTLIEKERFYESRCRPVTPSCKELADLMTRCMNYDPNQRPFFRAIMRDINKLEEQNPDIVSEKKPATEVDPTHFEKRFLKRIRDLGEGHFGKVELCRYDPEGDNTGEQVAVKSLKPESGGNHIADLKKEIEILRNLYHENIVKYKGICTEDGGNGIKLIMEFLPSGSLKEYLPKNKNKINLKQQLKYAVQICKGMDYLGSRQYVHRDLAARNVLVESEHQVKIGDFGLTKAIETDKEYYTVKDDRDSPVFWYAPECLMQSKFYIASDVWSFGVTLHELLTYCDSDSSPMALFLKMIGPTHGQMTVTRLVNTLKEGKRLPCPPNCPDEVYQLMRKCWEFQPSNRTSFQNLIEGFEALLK
row,ΔTm,SMILES
1,0.7 °C,Nc1nccc(-c2c(-c3ccc(F)cc3)ncn2C2CCNCC2)n1
2,0.1 °C,Oc1cccc(-c2nc(N3CCOCC3)c3oc4ncccc4c3n2)c1
3,0.8 °C,N#C/C(=C\c1ccc(O)c(O)c1)C(=O)Nc1ccccc1

# Biological target: Dual specificity protein kinase CLK1 (Homo sapiens) (UniProt P49759)
row,ΔTm,SMILES
1,1.3 °C,Nc1nccc(-c2c(-c3ccc(F)cc3)ncn2C2CCNCC2)n1
2,0.6 °C,Oc1cccc(-c2nc(N3CCOCC3)c3oc4ncccc4c3n2)c1
3,1 °C,N#C/C(=C\c1ccc(O)c(O)c1)C(=O)Nc1ccccc1

# Biological target: Serine/threonine-protein kinase Nek6 (Homo sapiens) (UniProt Q9HC98)
# Sequence (Q9HC98 whole entry): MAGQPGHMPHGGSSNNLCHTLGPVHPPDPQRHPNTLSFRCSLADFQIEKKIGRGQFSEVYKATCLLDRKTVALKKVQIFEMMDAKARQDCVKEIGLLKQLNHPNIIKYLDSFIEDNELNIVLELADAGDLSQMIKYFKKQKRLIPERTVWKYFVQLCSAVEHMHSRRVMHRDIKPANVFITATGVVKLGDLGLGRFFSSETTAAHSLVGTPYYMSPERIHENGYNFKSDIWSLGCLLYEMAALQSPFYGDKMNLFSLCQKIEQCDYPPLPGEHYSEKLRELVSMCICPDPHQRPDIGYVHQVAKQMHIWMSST
row,ΔTm,SMILES
1,-0.2 °C,Nc1nccc(-c2c(-c3ccc(F)cc3)ncn2C2CCNCC2)n1
2,0.4 °C,Oc1cccc(-c2nc(N3CCOCC3)c3oc4ncccc4c3n2)c1
3,0.9 °C,N#C/C(=C\c1ccc(O)c(O)c1)C(=O)Nc1ccccc1

# Biological target: 5'-AMP-activated protein kinase catalytic subunit alpha-2 (Homo sapiens) (UniProt P54646)
# Sequence (P54646 whole entry, looked up): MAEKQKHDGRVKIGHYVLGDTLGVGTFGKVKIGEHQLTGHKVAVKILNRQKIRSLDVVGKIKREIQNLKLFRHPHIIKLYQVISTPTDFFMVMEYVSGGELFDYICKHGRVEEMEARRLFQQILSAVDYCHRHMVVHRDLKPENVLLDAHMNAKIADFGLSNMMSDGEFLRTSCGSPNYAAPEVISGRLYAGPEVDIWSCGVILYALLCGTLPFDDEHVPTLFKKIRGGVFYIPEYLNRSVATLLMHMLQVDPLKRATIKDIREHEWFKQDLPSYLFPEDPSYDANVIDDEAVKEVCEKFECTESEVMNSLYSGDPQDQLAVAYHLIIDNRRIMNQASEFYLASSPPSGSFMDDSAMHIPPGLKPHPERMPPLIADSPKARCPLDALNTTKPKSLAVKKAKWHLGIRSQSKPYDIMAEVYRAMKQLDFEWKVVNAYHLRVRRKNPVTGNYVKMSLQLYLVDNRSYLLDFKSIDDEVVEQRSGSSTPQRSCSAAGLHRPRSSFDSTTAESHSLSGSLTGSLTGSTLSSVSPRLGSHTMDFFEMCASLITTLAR
row,ΔTm,SMILES
1,0.4 °C,Nc1nccc(-c2c(-c3ccc(F)cc3)ncn2C2CCNCC2)n1
2,-0.1 °C,Oc1cccc(-c2nc(N3CCOCC3)c3oc4ncccc4c3n2)c1
3,-0.3 °C,N#C/C(=C\c1ccc(O)c(O)c1)C(=O)Nc1ccccc1

# Biological target: Casein kinase I isoform gamma-3 (Homo sapiens) (UniProt Q9Y6M4)
# Sequence (Q9Y6M4 whole entry, looked up, canonical isoform): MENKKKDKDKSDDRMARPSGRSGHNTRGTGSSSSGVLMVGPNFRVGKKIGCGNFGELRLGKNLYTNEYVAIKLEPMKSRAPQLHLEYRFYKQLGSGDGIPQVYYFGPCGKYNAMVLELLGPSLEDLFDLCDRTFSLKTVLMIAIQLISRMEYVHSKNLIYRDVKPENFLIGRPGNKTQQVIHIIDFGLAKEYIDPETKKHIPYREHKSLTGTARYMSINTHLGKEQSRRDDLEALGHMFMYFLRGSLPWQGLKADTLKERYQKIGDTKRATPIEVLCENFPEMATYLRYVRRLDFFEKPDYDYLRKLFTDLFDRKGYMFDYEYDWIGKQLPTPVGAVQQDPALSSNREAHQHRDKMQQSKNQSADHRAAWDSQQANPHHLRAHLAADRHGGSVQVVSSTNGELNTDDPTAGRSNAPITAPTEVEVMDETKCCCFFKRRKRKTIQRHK
row,ΔTm,SMILES
1,2.4 °C,Nc1nccc(-c2c(-c3ccc(F)cc3)ncn2C2CCNCC2)n1
2,0.1 °C,Oc1cccc(-c2nc(N3CCOCC3)c3oc4ncccc4c3n2)c1
3,1.2 °C,N#C/C(=C\c1ccc(O)c(O)c1)C(=O)Nc1ccccc1

# Biological target: cAMP-dependent protein kinase catalytic subunit alpha (Homo sapiens) (UniProt P17612)
row,ΔTm,SMILES
1,0.7 °C,Nc1nccc(-c2c(-c3ccc(F)cc3)ncn2C2CCNCC2)n1
2,0.8 °C,Oc1cccc(-c2nc(N3CCOCC3)c3oc4ncccc4c3n2)c1
3,0.4 °C,N#C/C(=C\c1ccc(O)c(O)c1)C(=O)Nc1ccccc1

# Biological target: T2, Dual specificity mitogen-activated protein kinase kinase 6 (Homo sapiens) (UniProt P52564)
# T2 sequence (whole entry): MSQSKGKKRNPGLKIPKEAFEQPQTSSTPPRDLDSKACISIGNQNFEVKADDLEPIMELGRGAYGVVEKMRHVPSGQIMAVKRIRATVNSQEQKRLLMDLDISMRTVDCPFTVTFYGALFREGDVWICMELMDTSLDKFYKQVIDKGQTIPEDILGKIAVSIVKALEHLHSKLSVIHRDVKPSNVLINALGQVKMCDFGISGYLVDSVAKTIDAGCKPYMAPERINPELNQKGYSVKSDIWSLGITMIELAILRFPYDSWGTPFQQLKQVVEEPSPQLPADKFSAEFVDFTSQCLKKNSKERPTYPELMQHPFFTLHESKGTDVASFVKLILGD
row,ΔTm,SMILES
1,0.2 °C,Nc1nccc(-c2c(-c3ccc(F)cc3)ncn2C2CCNCC2)n1
2,0 °C,Oc1cccc(-c2nc(N3CCOCC3)c3oc4ncccc4c3n2)c1
3,0.3 °C,N#C/C(=C\c1ccc(O)c(O)c1)C(=O)Nc1ccccc1

# Biological target: STE20-like serine/threonine-protein kinase (Homo sapiens) (UniProt Q9H2G2)
row,ΔTm,SMILES
1,1.1 °C,Nc1nccc(-c2c(-c3ccc(F)cc3)ncn2C2CCNCC2)n1
2,0.3 °C,Oc1cccc(-c2nc(N3CCOCC3)c3oc4ncccc4c3n2)c1
3,1.8 °C,N#C/C(=C\c1ccc(O)c(O)c1)C(=O)Nc1ccccc1

# Biological target: Mitogen-activated protein kinase 3 (Homo sapiens, UniProt P27361)
# Sequence (P27361 whole entry): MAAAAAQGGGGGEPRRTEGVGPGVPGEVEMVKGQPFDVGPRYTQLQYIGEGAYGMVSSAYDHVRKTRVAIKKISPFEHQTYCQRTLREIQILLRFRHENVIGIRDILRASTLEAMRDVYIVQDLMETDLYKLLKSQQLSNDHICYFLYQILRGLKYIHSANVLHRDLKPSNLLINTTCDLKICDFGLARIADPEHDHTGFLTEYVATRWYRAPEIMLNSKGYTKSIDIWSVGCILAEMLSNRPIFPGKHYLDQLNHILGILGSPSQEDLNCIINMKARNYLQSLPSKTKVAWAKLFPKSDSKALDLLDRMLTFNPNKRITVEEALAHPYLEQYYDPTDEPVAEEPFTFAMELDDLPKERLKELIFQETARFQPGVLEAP
row,ΔTm,SMILES
1,0.5 °C,Nc1nccc(-c2c(-c3ccc(F)cc3)ncn2C2CCNCC2)n1
2,0 °C,Oc1cccc(-c2nc(N3CCOCC3)c3oc4ncccc4c3n2)c1
3,0.5 °C,N#C/C(=C\c1ccc(O)c(O)c1)C(=O)Nc1ccccc1

# Biological target: Casein kinase I isoform gamma-2 (Homo sapiens) (UniProt P78368)
# Sequence (P78368 whole entry, looked up, canonical isoform): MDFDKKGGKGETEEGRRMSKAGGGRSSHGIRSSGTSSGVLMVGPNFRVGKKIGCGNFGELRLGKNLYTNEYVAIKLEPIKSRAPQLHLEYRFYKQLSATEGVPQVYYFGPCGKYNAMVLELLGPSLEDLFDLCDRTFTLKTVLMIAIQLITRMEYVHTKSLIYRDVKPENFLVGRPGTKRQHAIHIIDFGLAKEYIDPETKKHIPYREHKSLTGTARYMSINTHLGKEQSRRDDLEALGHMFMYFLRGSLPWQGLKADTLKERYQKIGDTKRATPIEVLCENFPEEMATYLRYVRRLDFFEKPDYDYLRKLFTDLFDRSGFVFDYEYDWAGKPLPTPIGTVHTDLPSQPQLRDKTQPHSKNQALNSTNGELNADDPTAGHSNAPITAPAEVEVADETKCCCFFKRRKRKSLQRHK
row,ΔTm,SMILES
1,2 °C,Nc1nccc(-c2c(-c3ccc(F)cc3)ncn2C2CCNCC2)n1
2,0.1 °C,Oc1cccc(-c2nc(N3CCOCC3)c3oc4ncccc4c3n2)c1
3,1.2 °C,N#C/C(=C\c1ccc(O)c(O)c1)C(=O)Nc1ccccc1

# Biological target: Calcium/calmodulin-dependent protein kinase type II subunit alpha (Homo sapiens) (UniProt Q9UQM7)
row,ΔTm,SMILES
1,0.4 °C,Nc1nccc(-c2c(-c3ccc(F)cc3)ncn2C2CCNCC2)n1
2,-0.3 °C,Oc1cccc(-c2nc(N3CCOCC3)c3oc4ncccc4c3n2)c1
3,0.3 °C,N#C/C(=C\c1ccc(O)c(O)c1)C(=O)Nc1ccccc1

# Biological target: T3, Calcium/calmodulin-dependent protein kinase type IV (Homo sapiens) (UniProt Q16566)
# T3 sequence (whole entry): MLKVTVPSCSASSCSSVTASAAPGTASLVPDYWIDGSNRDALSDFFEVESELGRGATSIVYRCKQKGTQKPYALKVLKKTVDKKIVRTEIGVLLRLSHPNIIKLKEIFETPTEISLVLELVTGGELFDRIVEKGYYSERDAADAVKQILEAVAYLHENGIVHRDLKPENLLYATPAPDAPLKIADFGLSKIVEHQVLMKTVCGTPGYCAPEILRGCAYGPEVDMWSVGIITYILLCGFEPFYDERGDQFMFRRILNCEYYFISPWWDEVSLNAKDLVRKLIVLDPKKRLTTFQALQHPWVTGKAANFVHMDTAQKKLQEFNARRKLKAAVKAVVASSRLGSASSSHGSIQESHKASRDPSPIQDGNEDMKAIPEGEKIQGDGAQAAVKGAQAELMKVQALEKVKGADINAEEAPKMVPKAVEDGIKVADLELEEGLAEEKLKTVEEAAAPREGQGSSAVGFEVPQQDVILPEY
row,ΔTm,SMILES
1,0.2 °C,Nc1nccc(-c2c(-c3ccc(F)cc3)ncn2C2CCNCC2)n1
2,0 °C,Oc1cccc(-c2nc(N3CCOCC3)c3oc4ncccc4c3n2)c1
3,0.6 °C,N#C/C(=C\c1ccc(O)c(O)c1)C(=O)Nc1ccccc1

# Biological target: T4, Serine/threonine-protein kinase VRK3 (Homo sapiens) (UniProt Q8IV63)
# T4 sequence (whole entry): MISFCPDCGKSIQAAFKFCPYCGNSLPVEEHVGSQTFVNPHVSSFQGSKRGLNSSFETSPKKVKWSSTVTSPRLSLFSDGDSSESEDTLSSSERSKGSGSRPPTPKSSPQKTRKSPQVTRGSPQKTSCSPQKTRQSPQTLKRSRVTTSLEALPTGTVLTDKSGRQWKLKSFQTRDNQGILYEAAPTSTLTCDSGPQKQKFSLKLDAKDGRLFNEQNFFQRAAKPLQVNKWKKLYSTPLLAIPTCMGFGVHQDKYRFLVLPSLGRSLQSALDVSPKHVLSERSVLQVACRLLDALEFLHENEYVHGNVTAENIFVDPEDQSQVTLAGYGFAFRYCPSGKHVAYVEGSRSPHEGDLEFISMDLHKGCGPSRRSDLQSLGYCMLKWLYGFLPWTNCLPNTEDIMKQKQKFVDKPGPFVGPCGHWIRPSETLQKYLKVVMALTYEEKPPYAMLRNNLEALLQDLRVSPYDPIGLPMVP
row,ΔTm,SMILES
1,0 °C,Nc1nccc(-c2c(-c3ccc(F)cc3)ncn2C2CCNCC2)n1
2,0.2 °C,Oc1cccc(-c2nc(N3CCOCC3)c3oc4ncccc4c3n2)c1
3,0 °C,N#C/C(=C\c1ccc(O)c(O)c1)C(=O)Nc1ccccc1

# Biological target: Calcium/calmodulin-dependent protein kinase kinase 2 (Homo sapiens, UniProt Q96RR4)
row,ΔTm,SMILES
1,0.1 °C,Nc1nccc(-c2c(-c3ccc(F)cc3)ncn2C2CCNCC2)n1
2,-0.3 °C,Oc1cccc(-c2nc(N3CCOCC3)c3oc4ncccc4c3n2)c1
3,0.5 °C,N#C/C(=C\c1ccc(O)c(O)c1)C(=O)Nc1ccccc1
